Data: the supplement of paper PMC12463676, “Small-molecule dissolution of stress granules by redox modulation benefits ALS models” (Nature Chemical Biology, 2025)

Tests used:
lipoamide = compound: NC(=O)CCCCC1CCSS1 [lipoamide]; assay: thermal stability z-score vs DMSO; higher = more thermally stabilized by treatment; settings: HeLa, lipoamide concentration 100 µM
Experimental: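 Cellular thermal proteome profiling in HeLa cells. Cells were treated with 100 µM lipoamide for 1 h, with or without 1 mM arsenate for a further 1 h, then heated to ten temperatures (37-66.3 °C), and soluble protein was quantified by TMT mass spectrometry relative to 0.1% DMSO controls. The thermal stability score (sum of log2 fold changes minus the abundance score) was transformed to a z-score; mean of n = 3 experiments.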

potassium arsenate = compound: O=[As]([O-])(O)O.[K+] [potassium arsenate]; assay: as above; settings: HeLa; arsenate concentration 1 mM
Experimental: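 Cellular thermal proteome profiling in HeLa cells treated with 1 mM arsenate for 1 h (DMSO pretreatment), heated to ten temperatures (37-66.3 °C). Soluble protein was quantified by TMT mass spectrometry relative to DMSO controls; the thermal stability score was transformed to a z-score; mean of n = 3 experiments.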

[1] = arsenate co-treatment: 1 mM arsenate 1 h
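Also: each temperature applied for 3 min, abundance score taken as mean log2 fold change at the two lowest temperatures, z-score obtained by mean subtraction and division by SD.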

PRKCI (UniProt P41743)
thermal stability z-score (lipoamide; [1]): -0.507
thermal stability z-score (lipoamide; arsenate co-treatment: none): -0.312
thermal stability z-score (potassium arsenate): -0.914

PRKCSH (UniProt P14314)
thermal stability z-score (lipoamide; [1]): -2.77
thermal stability z-score (lipoamide; arsenate co-treatment: none): -2.47
thermal stability z-score (potassium arsenate): 0.768

PRKCZ (UniProt Q05513)
thermal stability z-score (lipoamide; [1]): -0.134
thermal stability z-score (lipoamide; arsenate co-treatment: none): -0.119
thermal stability z-score (potassium arsenate): -0.0717

PRKD2 (UniProt Q9BZL6)
thermal stability z-score (lipoamide; [1]): -0.0965
thermal stability z-score (lipoamide; arsenate co-treatment: none): -0.0785
thermal stability z-score (potassium arsenate): -0.232

PRKDC (UniProt P78527)
thermal stability z-score (lipoamide; [1]): 0.373
thermal stability z-score (lipoamide; arsenate co-treatment: none): 0.169
thermal stability z-score (potassium arsenate): -0.559

PRKRA (UniProt O75569)
thermal stability z-score (lipoamide; [1]): -0.115
thermal stability z-score (lipoamide; arsenate co-treatment: none): -0.0608
thermal stability z-score (potassium arsenate): -0.312

PRKRIP1 (UniProt Q9H875)
thermal stability z-score (lipoamide; [1]): 0.524
thermal stability z-score (lipoamide; arsenate co-treatment: none): 0.599
thermal stability z-score (potassium arsenate): 0.247

PRMT1 (UniProt Q99873)
thermal stability z-score (lipoamide; [1]): 0.147
thermal stability z-score (lipoamide; arsenate co-treatment: none): 0.262
thermal stability z-score (potassium arsenate): -0.12

PRMT3 (UniProt O60678)
thermal stability z-score (lipoamide; [1]): -0.336
thermal stability z-score (lipoamide; arsenate co-treatment: none): 0.22
thermal stability z-score (potassium arsenate): -0.148

PRMT5 (UniProt O14744)
thermal stability z-score (lipoamide; [1]): 0.459
thermal stability z-score (lipoamide; arsenate co-treatment: none): 0.231
thermal stability z-score (potassium arsenate): -0.408

PRMT6 (UniProt Q96LA8)
thermal stability z-score (lipoamide; [1]): 0.257
thermal stability z-score (lipoamide; arsenate co-treatment: none): 0.412
thermal stability z-score (potassium arsenate): 0.483

PRMT7 (UniProt Q9NVM4)
thermal stability z-score (lipoamide; [1]): -0.363
thermal stability z-score (lipoamide; arsenate co-treatment: none): 0.259
thermal stability z-score (potassium arsenate): 1.47

PRMT9 (UniProt Q6P2P2)
thermal stability z-score (lipoamide; [1]): 0.25
thermal stability z-score (lipoamide; arsenate co-treatment: none): 0.0769
thermal stability z-score (potassium arsenate): 0.171

PRNP
thermal stability z-score (lipoamide; [1]): 0.0235
thermal stability z-score (lipoamide; arsenate co-treatment: none): 0.239
thermal stability z-score (potassium arsenate): 0.0499

PROCR (UniProt Q9UNN8)
UniProt Q9UNN8, sequence (Q9UNN8 whole entry): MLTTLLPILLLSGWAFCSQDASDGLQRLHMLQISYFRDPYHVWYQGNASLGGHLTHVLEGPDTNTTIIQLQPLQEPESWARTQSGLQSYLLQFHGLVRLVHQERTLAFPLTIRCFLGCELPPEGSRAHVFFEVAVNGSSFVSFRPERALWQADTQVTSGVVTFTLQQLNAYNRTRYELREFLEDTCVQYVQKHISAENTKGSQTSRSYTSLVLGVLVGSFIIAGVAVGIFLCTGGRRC
thermal stability z-score (lipoamide; [1]): 1.19
thermal stability z-score (lipoamide; arsenate co-treatment: none): 0.359
thermal stability z-score (potassium arsenate): 1.04

PROSC (UniProt O94903)
thermal stability z-score (lipoamide; [1]): -0.595
thermal stability z-score (lipoamide; arsenate co-treatment: none): 0.453
thermal stability z-score (potassium arsenate): -1.14

PROSER2 (UniProt Q86WR7)
thermal stability z-score (lipoamide; [1]): -0.111
thermal stability z-score (lipoamide; arsenate co-treatment: none): -0.0827
thermal stability z-score (potassium arsenate): -0.644

PRPF3 (UniProt O43395)
thermal stability z-score (lipoamide; [1]): 2.57
thermal stability z-score (lipoamide; arsenate co-treatment: none): 2.44
thermal stability z-score (potassium arsenate): -0.0589

PRPF4 (UniProt O43172)
UniProt O43172, sequence (O43172 whole entry): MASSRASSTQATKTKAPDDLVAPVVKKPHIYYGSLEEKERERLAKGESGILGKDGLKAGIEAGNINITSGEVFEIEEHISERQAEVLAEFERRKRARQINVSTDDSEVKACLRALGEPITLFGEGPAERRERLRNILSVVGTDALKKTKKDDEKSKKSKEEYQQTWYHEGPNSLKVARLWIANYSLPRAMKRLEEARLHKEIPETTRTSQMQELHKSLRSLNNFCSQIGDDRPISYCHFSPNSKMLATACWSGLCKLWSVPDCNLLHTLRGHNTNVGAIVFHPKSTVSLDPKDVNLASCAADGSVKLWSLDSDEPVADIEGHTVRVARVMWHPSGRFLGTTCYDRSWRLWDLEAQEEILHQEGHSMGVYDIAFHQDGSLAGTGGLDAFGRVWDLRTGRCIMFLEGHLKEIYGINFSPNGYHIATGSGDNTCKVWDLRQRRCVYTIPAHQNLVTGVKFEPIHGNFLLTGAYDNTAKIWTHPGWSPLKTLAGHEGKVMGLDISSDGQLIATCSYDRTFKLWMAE
thermal stability z-score (lipoamide; [1]): 1.82
thermal stability z-score (lipoamide; arsenate co-treatment: none): 1.6
thermal stability z-score (potassium arsenate): 0.565

PRPF6 (UniProt O94906)
thermal stability z-score (lipoamide; [1]): -0.136
thermal stability z-score (lipoamide; arsenate co-treatment: none): -0.0563
thermal stability z-score (potassium arsenate): -0.171

PRPF8 (UniProt Q6P2Q9)
thermal stability z-score (lipoamide; [1]): -0.186
thermal stability z-score (lipoamide; arsenate co-treatment: none): -0.395
thermal stability z-score (potassium arsenate): -0.418

PRPF18 (UniProt Q99633)
UniProt Q99633, sequence (Q99633 whole entry): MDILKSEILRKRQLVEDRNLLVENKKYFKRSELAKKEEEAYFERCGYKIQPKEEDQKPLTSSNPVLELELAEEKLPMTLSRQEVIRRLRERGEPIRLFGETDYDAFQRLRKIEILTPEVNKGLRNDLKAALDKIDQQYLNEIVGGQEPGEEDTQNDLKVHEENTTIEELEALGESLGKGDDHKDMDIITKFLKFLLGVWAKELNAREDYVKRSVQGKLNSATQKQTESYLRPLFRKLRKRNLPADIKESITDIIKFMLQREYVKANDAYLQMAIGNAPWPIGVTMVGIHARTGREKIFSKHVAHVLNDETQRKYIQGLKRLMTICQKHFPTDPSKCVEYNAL
thermal stability z-score (lipoamide; [1]): -0.378
thermal stability z-score (lipoamide; arsenate co-treatment: none): 0.186
thermal stability z-score (potassium arsenate): -0.321

PRPF19 (UniProt Q9UMS4)
thermal stability z-score (lipoamide; [1]): 1.23
thermal stability z-score (lipoamide; arsenate co-treatment: none): 0.686
thermal stability z-score (potassium arsenate): -0.692

PRPF31 (UniProt Q8WWY3)
thermal stability z-score (lipoamide; [1]): -0.0354
thermal stability z-score (lipoamide; arsenate co-treatment: none): -0.524
thermal stability z-score (potassium arsenate): -0.687

PRPF38A (UniProt Q8NAV1)
UniProt Q8NAV1, sequence (Q8NAV1 whole entry): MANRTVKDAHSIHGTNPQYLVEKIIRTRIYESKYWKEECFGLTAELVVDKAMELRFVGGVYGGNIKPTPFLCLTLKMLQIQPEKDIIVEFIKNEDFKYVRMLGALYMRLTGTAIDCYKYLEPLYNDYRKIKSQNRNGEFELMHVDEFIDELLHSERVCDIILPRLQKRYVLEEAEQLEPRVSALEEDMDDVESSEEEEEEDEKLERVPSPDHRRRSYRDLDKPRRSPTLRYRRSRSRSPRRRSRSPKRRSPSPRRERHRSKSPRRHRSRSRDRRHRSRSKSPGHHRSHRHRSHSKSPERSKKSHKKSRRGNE
thermal stability z-score (lipoamide; [1]): 0.22
thermal stability z-score (lipoamide; arsenate co-treatment: none): 0.213
thermal stability z-score (potassium arsenate): 0.503

PRPF38B (UniProt Q5VTL8)
thermal stability z-score (lipoamide; [1]): -0.807
thermal stability z-score (lipoamide; arsenate co-treatment: none): -0.366
thermal stability z-score (potassium arsenate): -0.358

PRPF39 (UniProt Q86UA1)
UniProt Q86UA1, sequence (Q86UA1 whole entry): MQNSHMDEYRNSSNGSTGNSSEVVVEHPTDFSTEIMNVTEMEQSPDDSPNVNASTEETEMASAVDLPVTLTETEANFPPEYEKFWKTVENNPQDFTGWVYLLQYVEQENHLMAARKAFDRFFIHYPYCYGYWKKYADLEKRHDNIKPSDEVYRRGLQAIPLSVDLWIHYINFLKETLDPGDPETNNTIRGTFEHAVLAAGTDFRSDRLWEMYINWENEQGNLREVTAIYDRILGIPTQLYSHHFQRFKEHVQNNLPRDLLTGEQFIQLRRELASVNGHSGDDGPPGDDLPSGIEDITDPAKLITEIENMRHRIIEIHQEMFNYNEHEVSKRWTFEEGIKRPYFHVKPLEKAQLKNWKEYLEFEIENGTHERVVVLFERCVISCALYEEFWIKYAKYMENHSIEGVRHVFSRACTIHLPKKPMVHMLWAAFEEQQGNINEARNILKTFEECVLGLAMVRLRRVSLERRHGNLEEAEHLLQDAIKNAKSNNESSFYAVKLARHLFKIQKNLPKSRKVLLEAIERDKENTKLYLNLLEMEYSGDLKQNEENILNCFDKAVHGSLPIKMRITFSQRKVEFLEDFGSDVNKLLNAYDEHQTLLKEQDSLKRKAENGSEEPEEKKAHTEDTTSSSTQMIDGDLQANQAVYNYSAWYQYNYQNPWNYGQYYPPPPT
thermal stability z-score (lipoamide; [1]): -0.0835
thermal stability z-score (lipoamide; arsenate co-treatment: none): -0.137
thermal stability z-score (potassium arsenate): -0.0696

PRPF40A (UniProt O75400)
thermal stability z-score (lipoamide; [1]): -0.0187
thermal stability z-score (lipoamide; arsenate co-treatment: none): 0.00497
thermal stability z-score (potassium arsenate): 0.00775

PRPS1 (UniProt P60891)
thermal stability z-score (lipoamide; [1]): 0.0132
thermal stability z-score (lipoamide; arsenate co-treatment: none): -0.285
thermal stability z-score (potassium arsenate): -1.1

PRPS2 (UniProt P11908)
thermal stability z-score (lipoamide; [1]): 0.114
thermal stability z-score (lipoamide; arsenate co-treatment: none): -0.199
thermal stability z-score (potassium arsenate): -1.24

PRPSAP1 (UniProt Q14558)
thermal stability z-score (lipoamide; [1]): 0.0495
thermal stability z-score (lipoamide; arsenate co-treatment: none): -0.517
thermal stability z-score (potassium arsenate): -0.858

PRPSAP2 (UniProt O60256)
thermal stability z-score (lipoamide; [1]): -0.04
thermal stability z-score (lipoamide; arsenate co-treatment: none): -0.392
thermal stability z-score (potassium arsenate): -0.637

PRRC1 (UniProt Q96M27)
thermal stability z-score (lipoamide; [1]): 0.101
thermal stability z-score (lipoamide; arsenate co-treatment: none): 0.135
thermal stability z-score (potassium arsenate): -0.142

PRRC2A (UniProt P48634)
UniProt P48634, sequence (P48634 whole entry): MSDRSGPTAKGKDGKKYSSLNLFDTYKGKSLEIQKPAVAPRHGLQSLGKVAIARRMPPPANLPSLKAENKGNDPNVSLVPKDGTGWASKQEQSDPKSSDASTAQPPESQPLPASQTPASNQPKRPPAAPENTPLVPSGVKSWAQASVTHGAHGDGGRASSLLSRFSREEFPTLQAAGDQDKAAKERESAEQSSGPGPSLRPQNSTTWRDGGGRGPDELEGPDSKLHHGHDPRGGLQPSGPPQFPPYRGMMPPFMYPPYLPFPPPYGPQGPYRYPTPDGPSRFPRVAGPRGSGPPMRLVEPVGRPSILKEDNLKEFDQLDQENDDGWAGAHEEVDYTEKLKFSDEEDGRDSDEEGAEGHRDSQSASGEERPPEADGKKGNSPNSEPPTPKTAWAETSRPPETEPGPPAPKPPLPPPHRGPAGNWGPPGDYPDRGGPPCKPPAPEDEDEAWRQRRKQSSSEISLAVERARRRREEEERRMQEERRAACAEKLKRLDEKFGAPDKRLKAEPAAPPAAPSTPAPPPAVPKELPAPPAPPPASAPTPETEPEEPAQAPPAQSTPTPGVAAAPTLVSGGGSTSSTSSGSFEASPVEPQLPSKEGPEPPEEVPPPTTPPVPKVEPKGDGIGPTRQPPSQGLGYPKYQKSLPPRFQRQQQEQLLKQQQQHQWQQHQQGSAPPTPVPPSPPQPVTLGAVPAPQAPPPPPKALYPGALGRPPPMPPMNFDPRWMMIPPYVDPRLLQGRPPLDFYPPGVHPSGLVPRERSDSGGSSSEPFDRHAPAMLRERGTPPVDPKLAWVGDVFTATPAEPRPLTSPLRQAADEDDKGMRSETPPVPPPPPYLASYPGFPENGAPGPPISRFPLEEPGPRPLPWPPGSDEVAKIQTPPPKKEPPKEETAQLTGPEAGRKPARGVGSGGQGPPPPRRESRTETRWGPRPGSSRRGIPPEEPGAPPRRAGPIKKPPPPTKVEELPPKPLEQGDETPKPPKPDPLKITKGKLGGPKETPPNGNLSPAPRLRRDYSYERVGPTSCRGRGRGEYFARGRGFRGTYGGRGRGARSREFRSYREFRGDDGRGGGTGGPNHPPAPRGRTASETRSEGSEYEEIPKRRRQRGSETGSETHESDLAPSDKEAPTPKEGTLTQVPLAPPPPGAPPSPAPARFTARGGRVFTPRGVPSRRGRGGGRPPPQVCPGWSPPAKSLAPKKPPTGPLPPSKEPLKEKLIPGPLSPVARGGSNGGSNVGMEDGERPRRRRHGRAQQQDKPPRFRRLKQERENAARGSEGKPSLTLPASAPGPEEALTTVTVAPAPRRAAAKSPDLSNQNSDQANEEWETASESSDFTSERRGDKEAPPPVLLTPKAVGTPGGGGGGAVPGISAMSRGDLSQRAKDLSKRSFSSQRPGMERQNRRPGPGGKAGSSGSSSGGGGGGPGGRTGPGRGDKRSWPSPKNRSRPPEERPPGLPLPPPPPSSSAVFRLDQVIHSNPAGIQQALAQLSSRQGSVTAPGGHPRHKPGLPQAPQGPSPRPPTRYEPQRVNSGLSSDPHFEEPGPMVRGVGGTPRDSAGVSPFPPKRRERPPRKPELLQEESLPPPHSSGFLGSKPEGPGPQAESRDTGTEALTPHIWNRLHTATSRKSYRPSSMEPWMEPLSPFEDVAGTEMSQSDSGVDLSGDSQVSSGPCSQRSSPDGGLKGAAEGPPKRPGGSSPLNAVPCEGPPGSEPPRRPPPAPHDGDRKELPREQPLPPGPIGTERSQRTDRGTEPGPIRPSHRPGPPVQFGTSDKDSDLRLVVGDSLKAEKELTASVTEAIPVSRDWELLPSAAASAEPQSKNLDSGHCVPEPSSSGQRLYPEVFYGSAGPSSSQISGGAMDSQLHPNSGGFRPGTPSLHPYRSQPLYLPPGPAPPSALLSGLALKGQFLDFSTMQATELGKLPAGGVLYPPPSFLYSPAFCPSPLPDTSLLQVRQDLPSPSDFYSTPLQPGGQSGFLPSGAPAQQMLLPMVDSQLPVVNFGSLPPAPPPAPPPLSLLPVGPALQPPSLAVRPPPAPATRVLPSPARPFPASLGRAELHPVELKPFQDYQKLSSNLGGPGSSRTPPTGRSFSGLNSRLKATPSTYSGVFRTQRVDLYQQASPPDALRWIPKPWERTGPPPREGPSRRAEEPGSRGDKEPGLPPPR
thermal stability z-score (lipoamide; [1]): 0.431
thermal stability z-score (lipoamide; arsenate co-treatment: none): 0.205
thermal stability z-score (potassium arsenate): -0.13

PRRC2B (UniProt Q5JSZ5)
thermal stability z-score (lipoamide; [1]): -0.32
thermal stability z-score (lipoamide; arsenate co-treatment: none): -0.119
thermal stability z-score (potassium arsenate): -0.412

PRRC2C (UniProt Q9Y520)
thermal stability z-score (lipoamide; [1]): 0.242
thermal stability z-score (lipoamide; arsenate co-treatment: none): 0.174
thermal stability z-score (potassium arsenate): 0.0846

PRSS21 (UniProt Q9Y6M0)
thermal stability z-score (lipoamide; [1]): -3
thermal stability z-score (lipoamide; arsenate co-treatment: none): -2.45
thermal stability z-score (potassium arsenate): 1.03

PRSS56 (UniProt P0CW18)
thermal stability z-score (lipoamide; [1]): -3.63
thermal stability z-score (lipoamide; arsenate co-treatment: none): -2.95
thermal stability z-score (potassium arsenate): 0.756

PRTFDC1 (UniProt Q9NRG1)
thermal stability z-score (lipoamide; [1]): 0.628
thermal stability z-score (lipoamide; arsenate co-treatment: none): 0.169
thermal stability z-score (potassium arsenate): -0.386

PRUNE (UniProt Q86TP1)
thermal stability z-score (lipoamide; [1]): -0.709
thermal stability z-score (lipoamide; arsenate co-treatment: none): -0.433
thermal stability z-score (potassium arsenate): 0.291

PSAP (UniProt P07602)
UniProt P07602, sequence (P07602 whole entry): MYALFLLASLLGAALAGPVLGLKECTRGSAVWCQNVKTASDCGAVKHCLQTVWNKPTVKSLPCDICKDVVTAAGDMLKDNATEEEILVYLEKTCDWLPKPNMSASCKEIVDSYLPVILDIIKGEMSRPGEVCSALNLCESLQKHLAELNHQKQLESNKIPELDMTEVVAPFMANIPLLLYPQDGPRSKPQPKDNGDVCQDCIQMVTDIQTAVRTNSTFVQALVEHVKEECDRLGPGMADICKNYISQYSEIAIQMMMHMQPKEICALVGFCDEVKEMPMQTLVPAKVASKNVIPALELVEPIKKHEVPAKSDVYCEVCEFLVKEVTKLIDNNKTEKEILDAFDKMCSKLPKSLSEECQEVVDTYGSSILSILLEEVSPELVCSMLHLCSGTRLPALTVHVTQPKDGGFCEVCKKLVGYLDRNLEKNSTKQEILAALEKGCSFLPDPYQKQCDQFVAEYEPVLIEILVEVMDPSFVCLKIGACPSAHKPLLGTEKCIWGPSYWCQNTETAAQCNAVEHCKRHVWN
thermal stability z-score (lipoamide; [1]): 0.0503
thermal stability z-score (lipoamide; arsenate co-treatment: none): -0.136
thermal stability z-score (potassium arsenate): -0.336

PSAT1 (UniProt Q9Y617)
thermal stability z-score (lipoamide; [1]): 0.659
thermal stability z-score (lipoamide; arsenate co-treatment: none): 0.402
thermal stability z-score (potassium arsenate): -0.653

PSEN1 (UniProt P49768)
thermal stability z-score (lipoamide; [1]): 1.23
thermal stability z-score (lipoamide; arsenate co-treatment: none): -2
thermal stability z-score (potassium arsenate): -2.52

PSEN2 (UniProt P49810)
thermal stability z-score (lipoamide; [1]): -0.815
thermal stability z-score (lipoamide; arsenate co-treatment: none): -1.79
thermal stability z-score (potassium arsenate): -1.19

PSIP1 (UniProt O75475)
thermal stability z-score (lipoamide; [1]): 0.499
thermal stability z-score (lipoamide; arsenate co-treatment: none): 0.761
thermal stability z-score (potassium arsenate): -0.306

PSMA1 (UniProt P25786)
thermal stability z-score (lipoamide; [1]): 0.629
thermal stability z-score (lipoamide; arsenate co-treatment: none): 0.284
thermal stability z-score (potassium arsenate): 0.373

PSMA2 (UniProt P25787)
thermal stability z-score (lipoamide; [1]): 0.38
thermal stability z-score (lipoamide; arsenate co-treatment: none): 0.455
thermal stability z-score (potassium arsenate): -0.132

PSMA3 (UniProt P25788)
UniProt P25788, sequence (P25788 whole entry): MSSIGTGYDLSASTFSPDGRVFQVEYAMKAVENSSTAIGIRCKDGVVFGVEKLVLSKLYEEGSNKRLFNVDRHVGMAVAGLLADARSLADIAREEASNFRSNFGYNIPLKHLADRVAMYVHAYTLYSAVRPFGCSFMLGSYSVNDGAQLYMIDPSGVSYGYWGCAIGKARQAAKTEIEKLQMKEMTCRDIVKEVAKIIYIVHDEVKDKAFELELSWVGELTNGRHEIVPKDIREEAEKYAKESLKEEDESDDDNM
thermal stability z-score (lipoamide; [1]): 0.613
thermal stability z-score (lipoamide; arsenate co-treatment: none): 0.719
thermal stability z-score (potassium arsenate): 0.398

PSMA4 (UniProt P25789)
thermal stability z-score (lipoamide; [1]): 1.29
thermal stability z-score (lipoamide; arsenate co-treatment: none): 0.788
thermal stability z-score (potassium arsenate): 0.411

PSMA5 (UniProt P28066)
thermal stability z-score (lipoamide; [1]): 0.148
thermal stability z-score (lipoamide; arsenate co-treatment: none): 0.204
thermal stability z-score (potassium arsenate): -0.238

PSMA6 (UniProt P60900)
thermal stability z-score (lipoamide; [1]): 0.746
thermal stability z-score (lipoamide; arsenate co-treatment: none): 0.795
thermal stability z-score (potassium arsenate): 0.345

PSMA7 (UniProt O14818)
thermal stability z-score (lipoamide; [1]): 0.939
thermal stability z-score (lipoamide; arsenate co-treatment: none): 0.898
thermal stability z-score (potassium arsenate): 0.38

PSMB1 (UniProt P20618)
thermal stability z-score (lipoamide; [1]): 1
thermal stability z-score (lipoamide; arsenate co-treatment: none): 0.743
thermal stability z-score (potassium arsenate): 0.497

PSMB2 (UniProt P49721)
thermal stability z-score (lipoamide; [1]): 1.49
thermal stability z-score (lipoamide; arsenate co-treatment: none): 1.31
thermal stability z-score (potassium arsenate): 1.08

PSMB3 (UniProt P49720)
thermal stability z-score (lipoamide; [1]): 1.04
thermal stability z-score (lipoamide; arsenate co-treatment: none): 0.994
thermal stability z-score (potassium arsenate): 0.157
